From patent US7691858B2, “Kinase inhibitors and methods of use thereof” (TargeGen, Inc., priority 2006, dated 2010)
pIC50: −log10 of the molar value.

Legend:
PI3Kγ (p120γ) = target: T1, PI3Kγ (p120γ) (Homo sapiens, UniProt P48736); assay: PI3K luminescence kinase assay (Kinase-Glo), IC50; format: biochemical; settings: Table 1, mean of triplicate values
T1 construct: purchased Upstate Cell Signaling Solutions / Upstate USA
Experimental: The IC50 value for compounds were determined using a luminescence-based kinase assay with recombinant phosphatidylinositol 3-kinase-p120γ (PI3K) obtained from Upstate Cell Signaling Solutions. […] The reaction was initiated by the addition of 10 μL of ATP to a final assay concentration of 3 μM. After the reaction was to proceed for 90 min, 50 μL of Kinase-Glo reagent (Promega) was added to terminate the reaction. This solution was then allowed to proceed for an additional 10 min to maximize the luminescence reaction. […] Two control reactions were also ran: one containing no compound and the second containing neither compound nor the phosphatidylinositol 4,5-bisphosphate substrate. Data from four wells were then averaged and used to determine IC50 values for the test compounds. IC50 values were derived from experimental data using the non-linear curve fitting capabilities of Prism (Version 4; GraphPad Software).

four isoforms of PI3K = assay: PI3K isoform profiles; format: biochemical
Experimental: Identification of PI3K isoform-selective inhibitors.
Kinase assays: For PI3K assays, 40 μL reaction buffer (20 mM Tris, 4 mM MgCl2, 10 mM NaCl, pH 7.4) containing 50 μM D-myo-phosphatidylinositol 4,5-bisphosphate substrate (Echelon Biosciences, Salt Lake City, Utah) and the desired PI3K isoform (Upstate USA, Charlottesville, Va.) were aliquoted to 96 well plates; kinase concentrations were 250-500 ng/well, such that linear kinetics were achieved over 90 min. The compound to be tested was then added as 2.5 μL of a DMSO stock to final concentration range of 100 μM. to 1 nM. Reactions were initiated by addition of 10 μL of ATP to a final concentration of 3 μM, and after 90 min 50 μL of Kinase-Glo reagent (Promega, Madison, Wis.) added to quantify residual ATP levels; luminosity was measured using an Ultra 384 instrument (Tecan, Durham, N.C.). Control reactions omitting either test compound or substrate were also performed. IC50 values were derived from experimental data by non-linear curve fitting (Prism Version 4; GraphPad Software, San Diego, Calif.).

T1 sequence (P48736 whole entry): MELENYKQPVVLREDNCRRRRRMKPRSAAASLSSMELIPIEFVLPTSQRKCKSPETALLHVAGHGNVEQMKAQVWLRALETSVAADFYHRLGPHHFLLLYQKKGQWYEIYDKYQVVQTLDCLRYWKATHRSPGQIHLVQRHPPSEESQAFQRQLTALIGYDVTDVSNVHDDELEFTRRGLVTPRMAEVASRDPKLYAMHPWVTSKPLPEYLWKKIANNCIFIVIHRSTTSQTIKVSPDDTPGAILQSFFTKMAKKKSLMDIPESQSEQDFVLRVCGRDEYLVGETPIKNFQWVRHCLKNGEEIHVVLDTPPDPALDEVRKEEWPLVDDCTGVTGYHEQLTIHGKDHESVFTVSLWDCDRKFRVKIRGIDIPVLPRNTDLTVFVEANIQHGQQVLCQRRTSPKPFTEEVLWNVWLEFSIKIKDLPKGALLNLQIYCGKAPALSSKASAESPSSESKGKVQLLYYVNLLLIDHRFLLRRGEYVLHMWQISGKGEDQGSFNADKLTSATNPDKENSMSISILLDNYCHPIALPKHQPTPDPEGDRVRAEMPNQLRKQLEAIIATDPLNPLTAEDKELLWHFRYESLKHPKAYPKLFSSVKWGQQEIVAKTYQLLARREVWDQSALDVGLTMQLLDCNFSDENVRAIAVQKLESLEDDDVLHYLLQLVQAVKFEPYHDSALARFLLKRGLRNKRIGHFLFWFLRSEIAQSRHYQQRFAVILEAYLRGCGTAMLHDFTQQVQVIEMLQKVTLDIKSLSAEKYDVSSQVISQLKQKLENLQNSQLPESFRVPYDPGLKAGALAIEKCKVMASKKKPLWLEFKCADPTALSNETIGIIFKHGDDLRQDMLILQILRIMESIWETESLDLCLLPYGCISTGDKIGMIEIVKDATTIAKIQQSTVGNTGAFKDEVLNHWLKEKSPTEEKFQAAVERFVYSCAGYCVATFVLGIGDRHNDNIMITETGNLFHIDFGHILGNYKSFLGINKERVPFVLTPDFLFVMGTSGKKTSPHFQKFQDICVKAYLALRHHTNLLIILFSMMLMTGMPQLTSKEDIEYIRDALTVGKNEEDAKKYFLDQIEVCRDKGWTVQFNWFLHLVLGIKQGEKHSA

- pIC50 (PI3Kγ (p120γ)): 7.07
Structure (SMILES): Nc1nc(N)c2nc(-c3cccc4[nH]ccc34)cnc2n1 [Compound III, 6-(1H-Indol-4-yl)pteridine-2,4-diamine]
- PI3K isoform selectivity (four isoforms of PI3K): less selective
